Data set [1] in a line: Solubility of IFNα peptides. Particulars: in the T cell assay of Example 6. Type of data set: physicochemical.
A further data set has as its system PBMC. As to the kind of experiment: T cell activation assay (time course) of IFNα peptides, PBMC from 20 healthy donors and 20 IFN α2b-treated HCV patients. Type of data set: cell-based, human. Particulars: 20 healthy donors and 20 HCV patients previously treated with IFN α2b; 6-9 days culture; 3H-thymidine.

Where no end group is shown, it is not given here.

Regarding “EMIQQIFNLFSTKDS [compound 20, EMIQQIFNLFSTKDS]”, in data set [1], the solubility of peptide result was “insoluble”.

For the sequence “FNLFSTKDSSAAWDE (Potential T-cell Epitopes) [peptide 22]”, the “percentage of donors whose PBMC responded to a peptide (SI greater than about 1.95)” value (“percentage” for short) in the data set on PBMC is listed as 15%.

For the sequence “KEDSILAVRKYFQRI (Potential T-cell Epitopes) [compound 38]”, in the data set with PBMC, the “percentage” value was 15%.

With “RRISLFSCLKDRHDF (Potential T-cell Epitopes) [compound 8]”, the “percentage” value in the data set on PBMC is 15%.

With “SILAVRKYFQRITLY (Potential T-cell Epitopes) [peptide 39]”, the “percentage” value in the data set on PBMC is 25%.

As for “SLFSCLKDRHDFGFP (Potential T-cell Epitopes) [compound 9]”, the “percentage” value with PBMC is reported as 15%.

As to “VLHEMIQQIFNLFST [compound 19, VLHEMIQQIFNLFST]”, the solubility of peptide result in data set [1] is “insoluble”.

Values taken from patent publication US20050181459A1, “Method for mapping and eliminating T cell epitopes” (priority 2002, published 2005).
